Test results published in patent US8129366B2, “VLA-4 inhibitory drug” (Daiichi Sankyo Company, Limited, priority 2005, dated 2012).

Molecular target: T1, hα4 and β1 integrins (Homo sapiens, UniProt P05556+P13612)
T1 construct: expressed in transfected cells; host or cells: CHO cells
Test: In vitro inhibition of binding between CHO cells expressing hα4 and β1 integrins and Eu3+-hVCAM-1 D1D7-IgG
Conditions: for Ki: CHO cells expressing hα4 and β1 integrins, Eu3+-hVCAM-1 D1D7-IgG ligand, without HSA; for IC50: in the presence of 3% human serum albumin (HSA final concentration 3%)
Protocol: CHO cells which forcibly expressed hα4 and β1 integrins through transfection thereof, were inoculated into a Costar 3599 plate (3×10^4 cells/100 μl/well), and cultured for two days. The cells in the wells were washed two times with buffer A*, and then Eu^3+-hVCAM-1 D1D7-IgG diluted with assay buffer** to 2 nM was added in an amount of 50 μl/well. The substance under test diluted with 26 DMSO-assay buffer (in the co-presence or absence of 6% human serum albumin) was added in an amount of 50 μl/well (adding separately diluted solution to the wells for performing Scatchard analysis), the contents were stirred for 5 minutes with a plate mixer, and then the plate was left to stand still for one hour at room temperature. The binding inhibitory activity in the presence of human serum albumin (HSA) was examined by diluting the specimen with 26 DMSO-assay buffer containing 6% HSA (SIGMA Corp., c/n A-1653), and adding the resultant (HSA final concentration 3%). After 30 to 60 minutes of the addition of specimen, the plate contents were washed 4 times with buffer A at 4° C., an enhancing reagent (DELFIA SA) was added in an amount of 100 μl/well, and the plate was shaken for 5 minutes using a plate mixer. Subsequently, the fluorescence intensity was measured with a time-resolved fluorometer (DELFIA Wallac). The IC50 of the substance under test (the concentration for 50% inhibition of the binding between CHO cells and Eu^3+-hVCAM-1 D1D7-IgG) was determined from the binding rate obtained from the calculating expression of [(FT−FNS)−(FI−FNS)]/[(FT−FNS)]×100. Here, FT represents the fluorescence intensity of a well not containing the substance under test; FNS represents the fluorescence intensity of a well not containing the substance under test and hVCAM-1 D1D7-IgG; and FI represents the fluorescence intensity of a well containing the substance under test. The Kd value which represents the strength of binding, and Bmax (maximum binding amount) were estimated to be in the range of 0.06 to 20 nM according to the Scatchard analysis method. The evaluation results of the Ki value of the substance under test, and of the IC50 value in the presence of 3% HSA are presented in Tables 2 to 7.
The Ki value was calculated according to the above-described expression. ([L] is the ligand concentration)
[* buffer A: 25 mM HEPES (pH 7.5), 150 mM NaCl, 1 mM Ca^2+, 1 mM Mg^2+, 4 mM Mn2+;
** assay buffer: 25 mM HEPES (pH=7.5), 150 mM NaCl, 1 mM Ca^2+, 1 mM Mg^2+, 4 mM Mn^2+, 0.1% BSA, 20 μM DTPA, with/without 6% ALBUMIN, HUMAN SERUM (C/N A-1653, SIGMA)]

T1 sequence (P13612 34-1032): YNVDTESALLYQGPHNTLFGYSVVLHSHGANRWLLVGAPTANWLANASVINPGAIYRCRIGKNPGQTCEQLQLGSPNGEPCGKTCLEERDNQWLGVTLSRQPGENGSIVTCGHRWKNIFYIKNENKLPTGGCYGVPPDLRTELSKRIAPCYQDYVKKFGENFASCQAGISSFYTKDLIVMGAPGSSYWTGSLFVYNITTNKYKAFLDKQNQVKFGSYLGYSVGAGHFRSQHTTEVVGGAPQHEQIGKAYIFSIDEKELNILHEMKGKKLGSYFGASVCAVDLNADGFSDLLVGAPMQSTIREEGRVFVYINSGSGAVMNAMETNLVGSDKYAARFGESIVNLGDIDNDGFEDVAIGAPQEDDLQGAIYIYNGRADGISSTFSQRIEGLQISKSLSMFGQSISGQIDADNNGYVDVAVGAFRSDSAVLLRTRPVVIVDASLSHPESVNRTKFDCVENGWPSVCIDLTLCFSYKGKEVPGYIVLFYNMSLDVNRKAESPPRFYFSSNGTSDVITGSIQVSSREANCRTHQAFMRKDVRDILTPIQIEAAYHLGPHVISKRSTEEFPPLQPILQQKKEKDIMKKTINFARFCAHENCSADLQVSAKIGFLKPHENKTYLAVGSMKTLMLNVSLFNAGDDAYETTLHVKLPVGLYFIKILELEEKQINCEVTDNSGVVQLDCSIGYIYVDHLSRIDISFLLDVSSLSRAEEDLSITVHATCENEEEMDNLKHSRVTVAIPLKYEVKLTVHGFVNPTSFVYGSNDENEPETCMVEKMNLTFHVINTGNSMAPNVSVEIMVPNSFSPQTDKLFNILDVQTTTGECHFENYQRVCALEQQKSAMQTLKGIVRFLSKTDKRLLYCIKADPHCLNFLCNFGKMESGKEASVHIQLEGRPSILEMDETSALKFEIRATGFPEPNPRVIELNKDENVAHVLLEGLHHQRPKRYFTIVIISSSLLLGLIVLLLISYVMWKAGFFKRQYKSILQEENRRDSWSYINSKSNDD
T1 sequence (P05556 21-798): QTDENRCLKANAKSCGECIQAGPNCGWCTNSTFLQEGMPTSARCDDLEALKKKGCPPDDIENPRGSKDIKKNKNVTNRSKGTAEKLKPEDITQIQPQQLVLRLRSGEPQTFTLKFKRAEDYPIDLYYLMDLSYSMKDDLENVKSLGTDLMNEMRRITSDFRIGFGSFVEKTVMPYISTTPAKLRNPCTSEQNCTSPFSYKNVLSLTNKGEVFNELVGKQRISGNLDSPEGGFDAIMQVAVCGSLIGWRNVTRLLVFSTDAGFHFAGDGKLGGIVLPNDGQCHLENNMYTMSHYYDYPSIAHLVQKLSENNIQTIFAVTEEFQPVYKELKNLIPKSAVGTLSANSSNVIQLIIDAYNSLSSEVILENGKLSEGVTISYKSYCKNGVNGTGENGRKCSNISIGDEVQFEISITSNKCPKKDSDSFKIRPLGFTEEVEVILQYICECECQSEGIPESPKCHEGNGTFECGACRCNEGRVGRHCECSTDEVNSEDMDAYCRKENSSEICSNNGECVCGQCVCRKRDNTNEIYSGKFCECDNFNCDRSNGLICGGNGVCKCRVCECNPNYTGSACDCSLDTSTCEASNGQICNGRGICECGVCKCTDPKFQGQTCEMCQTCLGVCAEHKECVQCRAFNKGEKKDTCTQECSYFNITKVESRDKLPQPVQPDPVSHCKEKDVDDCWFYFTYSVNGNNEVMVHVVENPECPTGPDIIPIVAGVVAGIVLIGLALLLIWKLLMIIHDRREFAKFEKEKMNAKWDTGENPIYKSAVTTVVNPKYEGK

| Ki [nM] | IC50 [nM] | SMILES |
| --- | --- | --- |
| 2.4 | 9.2 | CO[C@H]1CN([C@H]2C[C@@H](CO[C@H]3CC[C@H](C(=O)O)CC3)N(C(=O)Cc3cc(Cl)c(NC(=O)c4cn(C)c5ccccc45)cc3Cl)C2)C[C@H]1OC [Example 56, Trans-4-[1-[[2,5-dichloro-4-[(1-methyl-1H-indol-3-ylcarbonyl)amino]phenyl]acetyl]-(4S)-(cis-3,4-dimethoxypyrrolidin-1-yl)-(2S)-pyrrolidinylmethoxy]cyclohexanecarboxylic acid] |
| 1.4 | 6.2 | CO[C@H]1CN([C@H]2C[C@@H](CO[C@H]3CC[C@H](C(=O)O)CC3)N(C(=O)Cc3cc(Cl)c(NC(=O)c4csc5ccccc45)cc3F)C2)C[C@H]1OC [Example 57, Trans-4-[1-[[4-[(benzo[b]thiophen-3-ylcarbonyl)amino]-5-chloro-2-fluorophenyl]acetyl]-(4S)-(cis-3,4-dimethoxypyrrolidin-1-yl)-(2S)-pyrrolidinylmethoxy]cyclohexanecarboxylic acid] |
| 3 | 8.1 | CO[C@H]1CN([C@H]2C[C@@H](CO[C@H]3CC[C@H](C(=O)O)CC3)N(C(=O)Cc3cc(Cl)c(NC(=O)c4coc5ccccc45)cc3F)C2)C[C@H]1OC [Example 59, Trans-4-[1-[[4-[(benzo[b]furan-3-ylcarbonyl)amino]-5-chloro-2-fluorophenyl]acetyl]-(4S)-(cis-3,4-dimethoxypyrrolidin-1-yl)-(2S)-pyrrolidinylmethoxy]cyclohexanecarboxylic acid] |
| 3.2 | 10 | CO[C@H]1CN([C@H]2C[C@@H](CO[C@H]3CC[C@H](C(=O)O)CC3)N(C(=O)Cc3ccc(NC(=O)c4nn(C)c5ccccc45)c(Cl)c3)C2)C[C@H]1OC [Example 62, Trans-4-[1-[[4-[(1-methyl-1H-indazol-3-ylcarbonyl)amino]-3-chlorophenyl]acetyl]-(4S)-(cis-3,4-dimethoxypyrrolidin-1-yl)-(2S)-pyrrolidinylmethoxy]cyclohexanecarboxylic acid] |
| 5 | 33 | CO[C@@H]1CN([C@H]2C[C@@H](CO[C@H]3CC[C@H](C(=O)O)CC3)N(C(=O)Cc3cc(Cl)c(NC(=O)c4cn(C)c5ccccc45)cc3Cl)C2)C[C@H]1OC [Example 64, Trans-4-[1-[[2,5-dichloro-4-[(1-methyl-1H-indol-3-ylcarbonyl)amino]phenyl]acetyl]-(4S)-[(3R,4R)-dimethoxypyrrolidin-1-yl]-(2S)-pyrrolidinylmethoxy]cyclohexanecarboxylic acid] |
| 2.9 | 35 | CO[C@@H]1CN([C@H]2C[C@@H](CO[C@H]3CC[C@H](C(=O)O)CC3)N(C(=O)Cc3cc(Cl)c(NC(=O)c4coc5ccccc45)cc3Cl)C2)C[C@H]1OC [Example 65, Trans-4-[1-[[4-[(benzo[b]furan-3-ylcarbonyl)amino]-2,5-dichlorophenyl]acetyl]-(4S)-[(3R,4R)-dimethoxypyrrolidin-1-yl]-(2S)-pyrrolidinylmethoxy]cyclohexanecarboxylic acid] |
| 1.2 | 12 | O=C(Nc1cc(F)c(CC(=O)N2C[C@@H](n3ccnc3)C[C@H]2CO[C@H]2CC[C@H](C(=O)O)CC2)cc1Cl)c1csc2ccccc12 [Example 67, Trans-4-[1-[[4-[(benzo[b]thiophen-3-ylcarbonyl)amino]-5-chloro-2-fluorophenyl]acetyl]-(4S)-(imidazol-1-yl)-(2S)-pyrrolidinylmethoxy]cyclohexanecarboxylic acid] |
| 2.1 | 30 | O=C(Nc1cc(Cl)c(CC(=O)N2C[C@@H](n3ccnc3)C[C@H]2CO[C@H]2CC[C@H](C(=O)O)CC2)cc1Cl)c1csc2ccccc12 [Example 68, Trans-4-[1-[[4-[(benzo[b]thiophen-3-ylcarbonyl)amino]-2,5-dichlorophenyl]acetyl]-(4S)-(imidazol-1-yl)-(2S)-pyrrolidinylmethoxy]cyclohexanecarboxylic acid] |
| 6.1 | 66 | Cn1cc(C(=O)Nc2cc(F)c(CC(=O)N3C[C@@H](N4CCCO4)C[C@H]3CO[C@H]3CC[C@H](C(=O)O)CC3)cc2Cl)c2ccccc21 [Example 69, Trans-4-[1-[[5-chloro-2-fluoro-4-[(1-methyl-1H-indol-3-ylcarbonyl)amino]phenyl]acetyl]-(4S)-(isoxazolidin-2-yl)-(2S)-pyrrolidinylmethoxy]cyclohexanecarboxylic acid] |
| 18 | 62 | O=C(Nc1cc(F)c(CC(=O)N2C[C@@H](N3CCCS3(=O)=O)C[C@H]2CO[C@H]2CC[C@H](C(=O)O)CC2)cc1Cl)c1coc2ccccc12 [Example 70, Trans-4-[1-[[4-[(benzo[b]furan-3-ylcarbonyl)amino]-5-chloro-2-fluorophenyl]acetyl]-(4S)-(1,1-dioxo-1λ^6-isothiazolidin-2-yl)-(2S)-pyrrolidinylmethoxy]cyclohexanecarboxylic acid] |
| 7.5 | 28 | O=C(Nc1cc(F)c(CC(=O)N2C[C@@H](N3C[C@H]4C[C@H]4C3)C[C@H]2CO[C@H]2CC[C@H](C(=O)O)CC2)cc1Cl)c1csc2ccccc12 [Example 71, Trans-4-[1-[[4-[(benzo[b]thiophen-3-ylcarbonyl)amino]-5-chloro-2-fluorophenyl]acetyl]-(4S)-[3-azabicyclo[3.1.0]hexan-3-yl]-(2S)-pyrrolidinylmethoxy]cyclohexanecarboxylic acid] |
| 0.52 | 12 | CC1(C)O[C@H]2CN([C@H]3C[C@@H](CO[C@H]4CC[C@H](C(=O)O)CC4)N(C(=O)Cc4cc(Cl)c(NC(=O)c5csc6ccccc56)cc4Cl)C3)C[C@H]2O1 [Example 75, Trans-4-[1-[[4-[(benzo[b]thiophen-3-ylcarbonyl)amino]-2,5-dichlorophenyl]acetyl]-(4S)-[(3a,6a-cis)-2,2-dimethyltetrahydro[1,3]dioxo[4,5-c]pyrrol-5-yl]-(2S)-pyrrolidinylmethoxy]cyclohexanecarboxylic acid] |
| 2 | 4.1 | O=C(Nc1cc(F)c(CC(=O)N2C[C@@H](N3C[C@@H]4CS(=O)(=O)C[C@@H]4C3)C[C@H]2CO[C@H]2CC[C@H](C(=O)O)CC2)cc1Cl)c1coc2ccccc12 [Example 77, Trans-4-[1-[[4-[(benzo[b]furan-3-ylcarbonyl)amino]-5-chloro-2-fluorophenyl]acetyl]-(4S)-[(3a,6a-cis)-hexahydro-2,2-dioxo-2λ^6-thieno[3,4-c]pyrrol-5-yl]-(2S)-pyrrolidinylmethoxy]cyclohexanecarboxylic acid] |
| 0.74 | 4.1 | C[C@@H]1CN([C@H]2C[C@@H](CO[C@H]3CC[C@H](C(=O)O)CC3)N(C(=O)Cc3cc(Cl)c(NC(=O)c4csc5ccccc45)cc3F)C2)C[C@H](C)O1 [Example 79, Trans-4-[1-[[4-[(benzo[b]thiophen-3-ylcarbonyl)amino]-5-chloro-2-fluorophenyl]acetyl]-(4S)-(cis-2,6-dimethylmorpholin-4-yl)-(2S)-pyrrolidinylmethoxy]cyclohexanecarboxylic acid] |
| 3 | 12 | C[C@@H]1CN([C@H]2C[C@@H](CO[C@H]3CC[C@H](C(=O)O)CC3)N(C(=O)Cc3cc(Cl)c(NC(=O)c4cn(C)c5ccccc45)cc3F)C2)C[C@H](C)O1 [Example 81, Trans-4-[1-[[5-chloro-2-fluoro-4-[(1-methyl-1H-indol-3-ylcarbonyl)amino]phenyl]acetyl]-(4S)-(cis-2,6-dimethylmorpholin-4-yl)-(2S)-pyrrolidinylmethoxy]cyclohexanecarboxylic acid] |
| 2.4 | 18 | C[C@@H]1CN([C@H]2C[C@@H](CO[C@H]3CC[C@H](C(=O)O)CC3)N(C(=O)Cc3cc(Cl)c(NC(=O)c4csc5ccccc45)cc3Cl)C2)C[C@H](C)O1 [Example 82, Trans-4-[1-[[4-[(benzo[b]thiophen-3-ylcarbonyl)amino]-2,5-dichlorophenyl]acetyl]-(4S)-(cis-2,6-dimethylmorpholin-4-yl)-(2S)-pyrrolidinylmethoxy]cyclohexanecarboxylic acid] |
